# Bridge positions count the residues as written; N and C are the ends. Square brackets hold non-standard residues; d marks the D form. Peptide text beside a SMILES is read from it. R8 = C=CCCCCCC[C@@](C)(N)C(=O)O; S5 = C=CCCC[C@](C)(N)C(=O)O; Nle = CCCC[C@H](N)C(=O)O
# Legend:
# [1] = target: T1, flag-tagged HIF1α (AA 786-826) / His6-tagged p300 (AA 323-423) complex (Homo sapiens, UniProt Q09472); test: HIF1α p300 displacement assay (TR FRET, +CHAPS); format: binding; settings: read-out: IC50 (nM) (HIF1α_p300 Displacement + CHAPS)
# T1 construct: His6-tagged p300 (AA 323-423); made in house; host or cells: E. coli (pETDuet vector)
# Method in brief: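 In this TR-FRET displacement format, peptides compete HIF1α C-terminal transactivation domain off p300-CH. They were preincubated 1 h at room temperature with 300 nM complex in HEPES pH 7.4/NaCl buffer with 7.5 mM CHAPS and 1 mM DTT. Anti-His-D2 (4 nM) and anti-Flag-K (0.5 μM) followed for 2 h, and a one-site fit of the fluorescence ratio gave IC50.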
# HRE-bla ME-180 cells [2] = test: Reporter gene assay (HRE-bla ME-180 HIF reporter, GeneBLAzer); format: cell-based, human; settings: for EC50: 24 hour normoxia
# Method in brief: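 A FRET β-lactamase readout of HIF transcription was used. After compound treatment in 0.3% DMSO/media under normoxic conditions, 20 μl of 6× LiveBLAzer-FRET B/G (CCF4-AM) substrate was added. Plates sat 3 hr at room temperature in the dark and were read at 409 Ex/460Em and 409Ex/530Em on a Synergy 2. Inhibition was compared against DMSO vehicle controls, with chetomin as positive control.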
# HRE-bla ME-180 cells [3] = test: Cell proliferation assay (viability, MTT, 1% FBS); format: cell-based, human
# Method in brief: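 Viable cell number was measured with the CellTiter 96 (MTT) kit after compounds were applied for a 16 h normoxic (21% O2) pretreatment, followed by further normoxic or hypoxic (1% O2) culture. Cells: 2×10^4 ME-180 per well, Opti-MEM + 1% FBS, 0.5% DMSO vehicle.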
Compound,IC50 [1] [nM],EC50 (HRE-bla ME-180 cells [2]) [µM],18 h Avg % max inhibition at top conc (HIF Rptr-24 hrs normoxia) (μM) (HRE-bla ME-180 cells [2]),Viability 1% FBS AVG (MTT V3-24 hr Normoxia) (μM) (HRE-bla ME-180 cells [3])
CCCC[C@H](NC(=O)[C@H](Cc1ccccc1)NC(=O)[C@@H](NC(=O)[C@H](C)NC(=O)[C@H](CCC(N)=O)NC(=O)[C@H](CC(=O)O)NC(=O)[C@@H](NC(=O)[C@H](Cc1ccccc1)NC(C)=O)[C@@H](C)CC)C(C)C)C(=O)N[C@@]1(C)CCCC=CCCC[C@@](C)(C(=O)N[C@@H](CCCC)C(=O)N[C@@H](C)C(=O)N[C@@H](CC(C)C)C(=O)N[C@@H](CC(C)C)C(N)=O)NC(=O)[C@H]([C@@H](C)CC)NC(=O)[C@H](C(C)C)NC(=O)[C@H](CC(N)=O)NC1=O [SP-251] (Ac-FIDQAVF[Nle][S5]NVI[S5][Nle]ALL-NH2; staple 9-13),> 700,≤ 5,++++ (≥50: ++++),+ (<5: +)
CCCC[C@H](NC(=O)[C@H](CC(C)C)NC(=O)[C@@H](NC(=O)[C@H](CCC(=O)O)NC(=O)[C@H](CCC(=O)O)NC(=O)[C@H](CC(=O)O)NC(=O)[C@@H](NC(=O)[C@H](Cc1ccccc1)NC(C)=O)[C@@H](C)CC)C(C)C)C(=O)N[C@@]1(C)CCCC=CCCC[C@@](C)(C(=O)N[C@@H](CCSC)C(=O)N[C@@H](C)C(=O)N[C@@H](CC(C)C)C(N)=O)NC(=O)[C@H]([C@@H](C)CC)NC(=O)[C@H](C(C)C)NC(=O)[C@H](CC(C)C)NC1=O [SP-224] (Ac-FIDEEVL[Nle][S5]LVI[S5]MAL-NH2; staple 9-13),400 to 700,> 30,++ (≤10 but <25: ++),++++ (≥30: ++++)
CCCC[C@@H]1NC(=O)[C@H](CC(C)C)NC(=O)[C@H](C(C)C)NC(=O)[C@@](C)(NC(=O)[C@H](CCC(=O)O)NC(=O)[C@H](CC(=O)O)NC(=O)[C@@H](NC(=O)[C@H](Cc2ccccc2)NC(C)=O)[C@@H](C)CC)CCCC=CCCC[C@@](C)(C(=O)N[C@@H](CC(C)C)C(=O)N[C@H](C(=O)N[C@H](C(=O)N[C@@H](CCC(=O)O)C(=O)N[C@@H](CO)C(=O)N[C@@H](C)C(=O)N[C@@H](CC(C)C)C(N)=O)[C@@H](C)CC)C(C)C)NC1=O [SP-147] (Ac-FIDE[S5]VL[Nle][S5]LVIESAL-NH2; staple 5-9),> 700,15 to 30,+++ (≤25 but <50: +++),++++ (≥30: ++++)
CCCC[C@H](NC(=O)[C@H](CCC(=O)O)NC(=O)[C@@H](NC(=O)[C@@H](NC(=O)[C@H](CC(C)C)NC(=O)[C@]1(C)CCCC=CCCC[C@](C)(NC(=O)[C@H](CCC(=O)O)NC(=O)[C@H](CC(=O)O)NC(=O)[C@@H](NC(=O)[C@H](Cc2ccccc2)NC(=O)[C@H](CCCCN)NC(C)=O)[C@@H](C)CC)C(=O)N[C@@H](C(C)C)C(=O)N[C@@H](CC(C)C)C(=O)N[C@@H](CCCC)C(=O)N1)C(C)C)[C@@H](C)CC)C(=O)N[C@@H](C)C(=O)N[C@@H](CC(C)C)C(N)=O [SP-134] (Ac-KFIDE[S5]VL[Nle][S5]LVIE[Nle]AL-NH2; staple 6-10),200 to 400,> 30,+++ (≤25 but <50: +++),++++ (≥30: ++++)

# Now from value to compound, other results behind:
IC50 [1] [nM],EC50 (HRE-bla ME-180 cells [2]) [µM],Compound,18 h Avg % max inhibition at top conc (HIF Rptr-24 hrs normoxia) (μM) (HRE-bla ME-180 cells [2]),Viability 1% FBS AVG (MTT V3-24 hr Normoxia) (μM) (HRE-bla ME-180 cells [3])
> 700,> 30,"CCCC[C@H](NC(=O)[C@H](CC(C)C)NC(=O)[C@@H](NC(=O)[C@H](CCC(=O)O)NC(=O)[C@H](CCC(=O)O)NC(=O)[C@H](CC(=O)O)NC(=O)[C@@H](NC(=O)[C@H](CC(N)=O)NC(=O)[C@@H](NC(=O)[C@H](CCC(N)=O)NC(=O)[C@]1(C)CCCC=CCCCCCC[C@@](C)(NC(=O)CNC(=O)[C@H](CCC(N)=O)NC(=O)[C@H](CC(C)C)NC(=O)[C@H](CC(C)C)NC(C)=O)C(=O)N[C@@H](CCC(=O)O)C(=O)N[C@@H](CC(C)C)C(=O)N[C@@H](CC(C)C)C(=O)N[C@@H](CCCNC(=N)N)C(=O)N[C@@H](C)C(=O)N[C@@H](CC(C)C)C(=O)N1)C(C)C)[C@@H](C)CC)C(C)C)C(=O)N[C@@]1(C)CCCC=CCCC[C@@](C)(C(=O)N[C@@H](CCCC)C(=O)NCC(N)=O)NC(=O)[C@H]([C@@H](C)CC)NC(=O)[C@H](C(C)C)NC(=O)[C@H](CC(C)C)NC1=O [SP-342] (Ac-LLQG[R8]ELLRAL[S5]QVNIDEEVL[Nle][S5]LVI[S5][Nle]G-NH2; staple 5-12, 23-27)",+++ (≤25 but <50: +++),++++ (≥30: ++++)
200 to 400,> 30,"CCCC[C@H](NC(=O)[C@H](CCC(=O)O)NC(=O)[C@]1(C)CCCC=CCCCCCC[C@@](C)(NC(=O)[C@H](CCC(=O)O)NC(=O)[C@H](C)NC(=O)[C@H](C)NC(=O)[C@H](C)NC(=O)[C@H](C)NC(=O)[C@H](CCC(N)=O)NC(=O)[C@]2(C)CCCC=CCCC[C@](C)(NC(=O)[C@H](CC(C)C)NC(=O)[C@H](CCC(=O)O)NC(=O)[C@H](CCC(=O)O)NC(=O)CNC(=O)[C@H](CCC(N)=O)NC(=O)[C@H](CC(C)C)NC(=O)[C@H](CC(C)C)NC(C)=O)C(=O)N[C@@H](CCCNC(=N)N)C(=O)N[C@@H](C)C(=O)N[C@@H](CC(C)C)C(=O)N2)C(=O)N[C@@H](C(C)C)C(=O)N[C@@H](CC(C)C)C(=O)N[C@@H](CCCC)C(=O)N[C@@H](CO)C(=O)N[C@@H](CC(C)C)C(=O)N[C@@H](C(C)C)C(=O)N1)C(N)=O [SP-359] (Ac-LLQGEEL[S5]RAL[S5]QAAAAE[R8]VL[Nle]SLV[S5]E[Nle]-NH2; staple 8-12, 19-26)",+++ (≤25 but <50: +++),++++ (≥30: ++++)
> 700,> 30,"CCCC[C@@H]1NC(=O)[C@H](CC(C)C)NC(=O)[C@](C)(NC(=O)[C@H](CCC(=O)O)NC(=O)[C@H](CCC(=O)O)NC(=O)[C@H](CC(=O)O)NC(=O)[C@@H](NC(=O)[C@H](CC(N)=O)NC(=O)[C@@H](NC(=O)[C@H](CCC(N)=O)NC(=O)[C@H](CC(=O)O)NC(=O)[C@H](CC(C)C)NC(=O)[C@]2(C)CCCC=CCCC[C@](C)(NC(=O)[C@H](CCC(=O)O)NC(=O)CNC(=O)[C@H](CCC(N)=O)NC(=O)[C@H](CC(C)C)NC(=O)[C@H](CC(C)C)NC(C)=O)C(=O)N[C@@H](CC(C)C)C(=O)N[C@@H](CC(C)C)C(=O)N[C@@H](CCCNC(=N)N)C(=O)N2)C(C)C)[C@@H](C)CC)CCCCCCC=CCCC[C@@](C)(C(=O)N[C@@H](CCCC)C(=O)NCC(N)=O)NC(=O)[C@H]([C@@H](C)CC)NC(=O)[C@H](C(C)C)NC(=O)[C@H](CC(C)C)NC(=O)[C@H](CO)NC1=O [SP-330] (Ac-LLQGE[S5]LLR[S5]LDQVNIDEE[R8]L[Nle]SLVI[S5][Nle]G-NH2; staple 6-10, 20-27)",+ (<10: +),++++ (≥30: ++++)
400 to 700,> 30,"CCCC[C@H](NC(=O)[C@]1(C)CCCC=CCCC[C@](C)(NC(=O)[C@H](CCCC)NC(=O)[C@H](CC(C)C)NC(=O)[C@@H](NC(=O)[C@H](C)NC(=O)[C@H](CCC(=O)O)NC(=O)[C@H](CC(=O)O)NC(=O)[C@@H](NC(=O)[C@H](CC(N)=O)NC(=O)[C@@H](NC(=O)[C@]2(C)CCCC=CCCCCCC[C@@](C)(NC(=O)[C@H](CCC(=O)O)NC(=O)CNC(=O)[C@H](CCC(N)=O)NC(=O)[C@H](CC(C)C)NC(=O)[C@H](CC(C)C)NC(C)=O)C(=O)N[C@@H](CC(C)C)C(=O)N[C@@H](CC(C)C)C(=O)N[C@@H](CCCNC(=N)N)C(=O)N[C@@H](C)C(=O)N[C@@H](CC(C)C)C(=O)N[C@@H](CC(=O)O)C(=O)N2)C(C)C)[C@@H](C)CC)C(C)C)C(=O)N[C@@H](CC(C)C)C(=O)N[C@@H](C(C)C)C(=O)N[C@@H]([C@@H](C)CC)C(=O)N1)C(N)=O [SP-347] (Ac-LLQGE[R8]LLRALD[S5]VNIDEAVL[Nle][S5]LVI[S5][Nle]-NH2; staple 6-13, 23-27)",+++ (≤25 but <50: +++),++++ (≥30: ++++)
> 700,≤ 5,"CCCC[C@H](NC(=O)[C@H](CCC(=O)O)NC(=O)[C@]1(C)CCCC=CCCCCCC[C@@](C)(NC(=O)[C@H](CCC(=O)O)NC(=O)[C@H](CC(=O)O)NC(=O)[C@@H](NC(=O)[C@H](CC(N)=O)NC(=O)[C@@H](NC(=O)[C@H](CCC(N)=O)NC(=O)[C@]2(C)CCCC=CCCC[C@](C)(NC(=O)[C@H](CC(C)C)NC(=O)[C@H](CCC(=O)O)NC(=O)[C@H](CCC(=O)O)NC(=O)CNC(=O)[C@H](CCC(N)=O)NC(=O)[C@H](CC(C)C)NC(=O)[C@H](CC(C)C)NC(C)=O)C(=O)N[C@@H](CCCNC(=N)N)C(=O)N[C@@H](C)C(=O)N[C@@H](CC(C)C)C(=O)N2)C(C)C)[C@@H](C)CC)C(=O)N[C@@H](C(C)C)C(=O)N[C@@H](CC(C)C)C(=O)N[C@@H](CCCC)C(=O)N[C@@H](CO)C(=O)N[C@@H](CC(C)C)C(=O)N[C@@H](C(C)C)C(=O)N1)C(=O)NCC(N)=O [SP-312] (Ac-LLQGEEL[S5]RAL[S5]QVNIDE[R8]VL[Nle]SLV[S5]E[Nle]G-NH2; staple 8-12, 19-26)",++++ (≥50: ++++),++++ (≥30: ++++)
